Measurements from US20250296988A1, “COMBINATION THERAPY” (ViiV Healthcare Company, priority 2020, published 2025).

Key:
HIV-1NL4-3 = experiment: Two-drug combination anti-HIV cytoprotection assay in MT-4 cells (MTS endpoint, MacSynergy II analysis); assay type: cell-based
Description: Provided below is an evaluation of the anti-HIV-1 activity and cytotoxicity of N6LS in two drug combination studies with Cabotegravir. N6LS was produced using standard methods described in the art. Stock solutions were prepared as listed in Table 4 and were thawed at room temperature on each day of assay setup to generate fresh working drug dilutions that were used that day in the assays. Working dilutions were not stored for re-use in subsequent experiments performed on different days. For each combination assay, N6LS was evaluated using a 20 nM high-test concentration with seven additional serial half-log dilutions. Each dilution of N6LS was tested in combination with five dilutions of the anti-HIV drug, Cabotegravir. In all cases the final DMSO concentration was <0.25%, which has been previously shown to have no effect in the described assays.
For cell preparation, MT-4 cells (obtained from the NIH AIDS Research and Reference Reagent Program) were passaged in T-75 flasks prior to use in the antiviral assay. On the day preceding the assay, the cells were split 1:2 to assure they were in an exponential growth phase at the time of infection. Total cell and viability quantification were performed using a hemacytometer and trypan blue exclusion. Cell viability needed to be greater than 95% for the cells to be utilized in the assay. The cells were re-suspended in tissue culture medium and added to the drug-containing microtiter plates in a volume of 110 μL and at a seeding density of 5.0×10^3 cells/well.
For virus preparation, the virus used for these tests was the CXCR4-tropic virus strain HIV-1NL4-3. This virus was obtained from the NIH AIDS Research and Reference Reagent Program and was grown in MT-4 cells for the production of stock virus pools. For each assay, a pre-titered aliquot of virus was removed from the freezer (−80° C.) and allowed to thaw slowly to room temperature in a biological safety cabinet. The virus was re-suspended and diluted into tissue culture medium such that the amount of virus added to each well, in a volume of 50 μL, was the amount determined to give between 85 to 95% cell-killing at 6 days post infection.
For Plate Format, a checkerboard plate format was used to test five concentrations of Cabotegravir with eight concentrations of N6LS. Combination antiviral efficacy was evaluated on three identical assay plates (i.e., triplicate measurements) that included cell control wells (cells only) and virus control wells (cells plus virus). Combination cytotoxicity was evaluated in parallel on two identical assay plates (i.e., duplicate measurements) that included cell control wells. Antiviral efficacy and cellular toxicity were monitored by MTS staining at the experimental endpoint.
For MTS Endpoint for cell viability, at assay termination, the soluble tetrazolium-based dye MTS (CellTiter 96 Reagent, Promega) was added to each well to determine cell viability and quantify compound toxicity. MTS is metabolized by the mitochondria enzymes of metabolically active cells to yield a soluble formazan product, allowing the rapid quantitative analysis of cell viability and compound cytotoxicity. […] At termination of the assay, 20 μL of MTS reagent was added per well and the microtiter plates were then incubated for 3-4 hours at 37° C., 5% CO2 for the HIV cytoprotection assay; the incubation intervals were chosen based on empirically determined times for optimal MTS reduction. Adhesive plate sealers were used in place of the lids, the sealed plates were inverted several times to mix the soluble formazan product and the plates were read spectrophotometrically at 490/650 nm with a Molecular Devices SpectraMax i3 plate reader.
Combination antiviral assays were performed with MT-4 cells utilizing HIV-1NL4-3, as described above. For each combination assay, five concentrations of Cabotegravir were tested with eight concentrations of N6LS. […]

[1] = tested on: broad range of HIV-1 strains; details: cited from earlier work
[2] = in combination with N6LS, 95% confidence values, experiment 1
[3] = in combination with N6LS, 95% confidence values, experiment 2
[4] = in combination with N6LS, 95% confidence values, experiment 3
[5] = in combination with N6LS, 95% confidence values, n = 3

C[C@H]1CO[C@@H]2Cn3cc(C(=O)NCc4ccc(F)cc4F)c(=O)c(O)c3C(=O)N12 [Cabotegravir, N-((2,4-Difluorophenyl)methyl)-6-hydroxy-3-methyl-5,7-dioxo-2,3,5,7,11,11a hexahydro (1,3) oxazolo (3,2-a)pyrido (1,2-d) pyrazine-8-carboxamide]
Drug-drug interaction of the combination (HIV-1NL4-3; combination of N6LS with Cabotegravir): mainly synergistic or additive interactions | Antagonism Volume, Result 1 (HIV-1NL4-3; [2]): −45.27 nM^2% | Synergy Volume, Result 1 (HIV-1NL4-3; [2]): 2.32 nM^2% | Antagonism Volume, Result 2 (HIV-1NL4-3; [3]): 0 nM^2% | Synergy Volume, Result 2 (HIV-1NL4-3; [3]): 187.5 nM^2% | Antagonism Volume, Result 3 (HIV-1NL4-3; [4]): −39.56 nM^2% | Synergy Volume, Result 3 (HIV-1NL4-3; [4]): 61.7 nM^2% | Mean Antagonism Volume (HIV-1NL4-3; [5]): −28.28 nM^2 | Mean Synergy Volume (HIV-1NL4-3; [5]): 83.84 nM^2 | potency and antiviral activity [1]: subnanomolar potency
